Consider 6 compounds from the supplement of paper PMC12076712.

Common to all, as to assay: pIC50, kinobeads binding competition
The target in one test is T1, UniProt P25098.
T1 sequence (whole entry): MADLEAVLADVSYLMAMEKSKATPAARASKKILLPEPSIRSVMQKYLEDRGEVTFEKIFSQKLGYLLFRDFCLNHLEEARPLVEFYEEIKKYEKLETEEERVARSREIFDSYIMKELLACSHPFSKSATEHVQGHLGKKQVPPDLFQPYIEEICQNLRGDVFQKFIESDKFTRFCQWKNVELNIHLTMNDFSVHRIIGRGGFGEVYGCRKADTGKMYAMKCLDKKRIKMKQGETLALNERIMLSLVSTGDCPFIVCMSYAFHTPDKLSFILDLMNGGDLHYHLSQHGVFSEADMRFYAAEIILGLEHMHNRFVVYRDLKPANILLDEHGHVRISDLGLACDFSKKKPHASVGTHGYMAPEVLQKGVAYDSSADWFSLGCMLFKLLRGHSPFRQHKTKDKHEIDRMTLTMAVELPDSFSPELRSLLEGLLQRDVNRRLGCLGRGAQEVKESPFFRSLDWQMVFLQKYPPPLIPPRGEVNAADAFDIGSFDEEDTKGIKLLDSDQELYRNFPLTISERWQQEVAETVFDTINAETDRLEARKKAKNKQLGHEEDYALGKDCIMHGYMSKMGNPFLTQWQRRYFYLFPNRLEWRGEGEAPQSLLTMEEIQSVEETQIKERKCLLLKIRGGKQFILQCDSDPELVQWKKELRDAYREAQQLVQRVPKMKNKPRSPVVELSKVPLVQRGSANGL
In short, it runs like this:
(§1)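 To obtain pIC50, fold changes versus vehicle were fitted to logistic dose-response curves (R drc package) across biological duplicates. Protein binding to Kinobeads was quantified by TMT10 LC-MS/MS of digested bead-bound proteins. Treatments used nine concentrations with a top of 30 μM, applied to live Jurkat cells in 1:4 steps for 60 min at 37 °C before lysis, or to Jurkat lysate or a 1:1:1:1 HEK293/K-562/HepG2/placenta lysate mix in 1:5 steps for 60 min at 4 °C.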

Another test deals with T2, MAP4K2 (UniProt Q12851).
T2 sequence (whole entry): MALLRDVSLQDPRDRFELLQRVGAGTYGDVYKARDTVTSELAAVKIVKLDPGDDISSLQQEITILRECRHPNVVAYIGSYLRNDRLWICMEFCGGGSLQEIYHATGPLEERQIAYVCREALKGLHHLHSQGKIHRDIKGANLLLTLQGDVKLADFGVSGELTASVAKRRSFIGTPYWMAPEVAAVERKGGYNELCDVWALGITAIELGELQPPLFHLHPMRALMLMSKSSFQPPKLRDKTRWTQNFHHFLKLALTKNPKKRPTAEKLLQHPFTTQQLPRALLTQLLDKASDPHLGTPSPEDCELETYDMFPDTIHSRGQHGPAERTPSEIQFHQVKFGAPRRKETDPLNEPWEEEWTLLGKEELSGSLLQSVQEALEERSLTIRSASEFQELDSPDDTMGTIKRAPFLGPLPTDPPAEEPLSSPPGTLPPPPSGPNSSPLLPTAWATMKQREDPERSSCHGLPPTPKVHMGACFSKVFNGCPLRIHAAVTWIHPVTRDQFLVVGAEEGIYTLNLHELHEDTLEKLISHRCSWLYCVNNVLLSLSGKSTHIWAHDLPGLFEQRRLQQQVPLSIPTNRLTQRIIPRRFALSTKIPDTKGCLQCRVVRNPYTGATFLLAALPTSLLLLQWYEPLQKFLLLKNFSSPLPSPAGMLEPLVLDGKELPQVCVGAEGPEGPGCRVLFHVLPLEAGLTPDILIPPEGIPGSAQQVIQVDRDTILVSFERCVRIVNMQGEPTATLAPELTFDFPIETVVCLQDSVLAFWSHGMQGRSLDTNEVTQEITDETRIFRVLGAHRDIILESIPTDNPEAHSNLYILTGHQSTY
In short, it runs like this: as §1

A further test concerns the target UniProt P19784. The method, boiled down: as §1
A further test deals with SYK (UniProt P43405). In short, it runs like this: as §1
A further test addresses MAP4K5 (UniProt Q9Y4K4). In short, it runs like this:
as §1

A further test concerns the target CDK5 (UniProt Q00535). In short, it runs like this:
as §1

The next test deals with T3, MYLK3 (UniProt Q32MK0).
T3 sequence (whole entry): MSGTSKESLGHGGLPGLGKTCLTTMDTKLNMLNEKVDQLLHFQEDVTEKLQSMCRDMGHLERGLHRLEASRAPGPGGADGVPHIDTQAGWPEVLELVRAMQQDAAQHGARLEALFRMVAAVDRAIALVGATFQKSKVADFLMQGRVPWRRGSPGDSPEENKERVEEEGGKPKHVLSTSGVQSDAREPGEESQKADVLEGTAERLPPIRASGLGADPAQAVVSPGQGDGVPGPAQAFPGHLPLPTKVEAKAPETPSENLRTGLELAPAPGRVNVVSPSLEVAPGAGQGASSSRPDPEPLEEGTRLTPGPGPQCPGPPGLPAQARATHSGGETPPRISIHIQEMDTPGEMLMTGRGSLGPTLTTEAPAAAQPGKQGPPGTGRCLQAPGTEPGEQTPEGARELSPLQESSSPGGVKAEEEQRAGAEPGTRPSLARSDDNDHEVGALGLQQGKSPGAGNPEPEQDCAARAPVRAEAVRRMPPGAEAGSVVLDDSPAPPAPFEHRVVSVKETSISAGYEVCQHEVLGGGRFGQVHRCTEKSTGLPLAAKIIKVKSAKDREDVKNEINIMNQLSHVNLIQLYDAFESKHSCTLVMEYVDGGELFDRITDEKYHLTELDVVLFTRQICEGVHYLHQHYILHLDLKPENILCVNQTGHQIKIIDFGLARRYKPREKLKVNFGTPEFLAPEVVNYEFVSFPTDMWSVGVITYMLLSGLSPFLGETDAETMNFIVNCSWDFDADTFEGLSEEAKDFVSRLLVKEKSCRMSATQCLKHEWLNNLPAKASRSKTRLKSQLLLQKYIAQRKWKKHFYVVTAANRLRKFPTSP
The conditions noted are these: cell material: Lysate mix. The method, boiled down: as §1

Another test concerns the target SRC (UniProt P12931). In short, it runs like this: as §1
For the next test, the target named is CAMKK2 (UniProt Q96RR4). The method, boiled down: as §1
A further test addresses UniProt Q05655. In short, it runs like this: as §1

On to `Cc1cc(Nc2cc(C(=O)NCCNC(=O)OC3CC/C=C/CCC3)nc(N3CCN(Cc4ccc(S(=O)(=O)F)cc4)CC3)n2)n[nH]1` (stereo not drawn), for which the pIC50 on UniProt P25098 (cell material: Lysate mix) was below 4.52; at MAP4K2 (cell material: Lysate mix) it was below 4.52; at UniProt P19784 (cell material: Lysate mix), below 4.52; at SYK (cell material: Lysate mix) it was below 4.52; on MAP4K5 (cell material: Lysate mix), below 4.52; at CDK5 (cell material: Lysate mix), 4.92. The negative-log IC50 (pIC50) is below 4.52 at MYLK3, 4.7 at SRC (cell material: Lysate mix), below 4.52 on CAMKK2 (cell material: Lysate mix) and below 4.52 at UniProt Q05655 (cell material: Lysate mix).
`C#CCNC(=O)c1cc(Nc2cc(C3CC3)[nH]n2)nc(N2CCN(Cc3ccc(S(=O)(=O)F)cc3)CC2)n1`: the negative logarithm of the IC50 (pIC50) at UniProt P25098 (cell material: Jurkat cells) was 5.69; at UniProt P25098 (cell material: Jurkat lysate), below 4.52; at MAP4K2 (cell material: Jurkat cells), 5.92; at MAP4K2 (cell material: Jurkat lysate), 4.56; on MAP4K2 (cell material: Lysate mix), 5.36; at UniProt P19784 (cell material: Jurkat cells) it was 5.66. Also, the pIC50 was below 4.52 on UniProt P19784 (cell material: Jurkat lysate); 4.96 on UniProt P19784 (cell material: Lysate mix); 5.64 on SYK (cell material: Jurkat lysate); 6.28 on SYK (cell material: Lysate mix); 6.45 at MAP4K5 (cell material: Jurkat cells); 5.53 at MAP4K5 (cell material: Jurkat lysate). The pIC50 on MAP4K5 (cell material: Lysate mix) was 6.21; on CDK5 (cell material: Jurkat cells) it was 6.74; on CDK5 (cell material: Jurkat lysate), 5.96; at CDK5 (cell material: Lysate mix) it was 6.48; on MYLK3 it was below 4.52; at SRC (cell material: Jurkat cells), 6.41. The pIC50 came to 5.68 on SRC (cell material: Jurkat lysate); 6.24 at SRC (cell material: Lysate mix); 5.88 on CAMKK2 (cell material: Jurkat cells); 5.7 at CAMKK2 (cell material: Jurkat lysate); 5.88 at CAMKK2 (cell material: Lysate mix); 5.53 at UniProt Q05655 (cell material: Jurkat cells). In addition, the negative logarithm of the IC50 (pIC50) at UniProt Q05655 (cell material: Jurkat lysate) and on UniProt Q05655 (cell material: Lysate mix) was below 4.52 each time.
In the case of `CCNC(=O)c1cc(Nc2cc(C3CC3)[nH]n2)nc(N2CCN(Cc3ccc(S(=O)(=O)F)cc3)CC2)n1`, the pIC50 at UniProt P25098 (cell material: Lysate mix) was below 4.52; at MAP4K2 (cell material: Lysate mix), 4.88; at UniProt P19784 (cell material: Lysate mix) it was 5.47; on SYK (cell material: Lysate mix), 6.22; on MAP4K5 (cell material: Lysate mix), 5.77; at CDK5 (cell material: Lysate mix), 6.06. The pIC50 at MYLK3 was 4.69; at SRC (cell material: Lysate mix) it was 6.14; at CAMKK2 (cell material: Lysate mix) it was 5.6; at UniProt Q05655 (cell material: Lysate mix), below 4.52.
Take `C#CCNC(=O)c1cc(Nc2cc(C)[nH]n2)nc(N2CCN(Cc3ccc(S(=O)(=O)F)cc3)CC2)n1`: the negative-log IC50 (pIC50) was below 4.52 on UniProt P25098 (cell material: Lysate mix); 4.81 at MAP4K2 (cell material: Lysate mix); 4.78 on UniProt P19784 (cell material: Lysate mix); 5.52 at SYK (cell material: Lysate mix); 5.53 at MAP4K5 (cell material: Lysate mix); 6.02 on CDK5 (cell material: Lysate mix). In addition, the negative logarithm of the IC50 (pIC50) on MYLK3 is below 4.52; at SRC (cell material: Lysate mix) it was 5.89; at CAMKK2 (cell material: Lysate mix), below 4.52; on UniProt Q05655 (cell material: Lysate mix) it was below 4.52.
On to `O=C(NCCNC(=O)c1cc(Nc2cc(C3CC3)[nH]n2)nc(N2CCN(Cc3ccc(S(=O)(=O)F)cc3)CC2)n1)OC1CC/C=C/CCC1` (stereo not drawn), for which the pIC50 on UniProt P25098 (cell material: Jurkat cells) was 5; on UniProt P25098 (cell material: Jurkat lysate), below 4.52; on UniProt P25098 (cell material: Lysate mix), below 4.52; on MAP4K2 (cell material: Jurkat cells) it was 5.33; at MAP4K2 (cell material: Jurkat lysate), below 4.52; at MAP4K2 (cell material: Lysate mix), below 4.52. The pIC50 is 4.7 on UniProt P19784 (cell material: Jurkat cells); below 4.52 at UniProt P19784 (cell material: Jurkat lysate); below 4.52 on UniProt P19784 (cell material: Lysate mix); 5.38 on SYK (cell material: Jurkat cells); below 4.52 at SYK (cell material: Jurkat lysate); below 4.52 at SYK (cell material: Lysate mix). Also, the negative logarithm of the IC50 (pIC50) at MAP4K5 (cell material: Jurkat cells) was 5.8; on MAP4K5 (cell material: Jurkat lysate), below 4.52; on MAP4K5 (cell material: Lysate mix), below 4.52; on CDK5 (cell material: Jurkat cells), 6.34; on CDK5 (cell material: Jurkat lysate), 5.1; on CDK5 (cell material: Lysate mix) it was 5.12. Besides, the negative logarithm of the IC50 (pIC50) on MYLK3 was below 4.52; at SRC (cell material: Jurkat cells), 5.9; at SRC (cell material: Jurkat lysate) it was below 4.52; at CAMKK2 (cell material: Jurkat cells) it was 6.18; on CAMKK2 (cell material: Jurkat lysate) it was 5.1; on CAMKK2 (cell material: Lysate mix) it was 5. Also, the pIC50 at UniProt Q05655 (cell material: Jurkat cells) is 5.19; on UniProt Q05655 (cell material: Jurkat lysate), below 4.52; on UniProt Q05655 (cell material: Lysate mix) it was below 4.52.
`CCNC(=O)c1cc(Nc2cc(C)[nH]n2)nc(N2CCN(Cc3ccc(S(=O)(=O)F)cc3)CC2)n1`: the negative-log IC50 (pIC50) at UniProt P25098 (cell material: Lysate mix) was below 4.52; on MAP4K2 (cell material: Lysate mix), 4.7; on UniProt P19784 (cell material: Lysate mix), 5.1; on SYK (cell material: Lysate mix) it was 5.57; on MAP4K5 (cell material: Lysate mix), 5.33; at CDK5 (cell material: Lysate mix) it was 5.93. The pIC50 at MYLK3 was below 4.52; at SRC (cell material: Lysate mix), 6.61; at CAMKK2 (cell material: Lysate mix), below 4.52; on UniProt Q05655 (cell material: Lysate mix), below 4.52.

For orientation: pIC50 means the negative decadic logarithm of the IC50, by convention in mol/L. Read a low pIC50 as a high IC50.
